From ChEMBL document CHEMBL1201862, “PubChem BioAssay data set” (2004)
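Five concentrations, 48 hours, 96-well plates. GI50 marks 50% less growth.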 Activity calls are given as the source filed them. No stated cut-off is given here; in the data, active = GI50 up to about 1.1 µM and inactive = higher. Where a SMILES comes first, the peptide text is derived from it. The star is where a group is joined. Cbz = O=C(OCc1ccccc1)*

How the values were obtained:
Test in all cases: DTP human tumour cell line panel, 48 h
[1] = system: SW-620
[2] = system: NCI-H23
[3] = system: HOP-92
[4] = system: MCF7
[5] = system: SNB-19
[6] = system: SK-MEL-2
[7] = system: RXF 393
[8] = system: SF-268
[9] = system: HCC 2998
[10] = system: COLO 205
[11] = system: HCT-15
[12] = system: A549
[13] = system: OVCAR-5
[14] = system: LOX IMVI
[15] = system: KM12
[16] = system: OVCAR-4
[17] = system: RPMI-8226
[18] = system: SNB-75
[19] = system: PC-3
[20] = system: SF-539

Row | SMILES | GI50 [1] | GI50 [2] | GI50 [3] | GI50 [4] | GI50 [5] | GI50 [6] | GI50 [7] | GI50 [8] | GI50 [9] | GI50 [10] | GI50 [11] | GI50 [12] | GI50 [13] | GI50 [14] | GI50 [15] | GI50 [16] | GI50 [17] | GI50 [18] | GI50 [19] | GI50 [20]
1 | CN(C)Cc1cc(Cl)c(O)c(CN(C)C)c1 | > 100 µM (inactive) | > 100 µM (inactive) | > 100 µM (inactive) | > 100 µM (inactive) | > 100 µM (inactive) | > 100 µM (inactive) | > 100 µM (inactive) | > 100 µM (inactive) | > 100 µM (inactive) | > 100 µM (inactive) | > 100 µM | > 100 µM (inactive) | > 100 µM (inactive) | > 100 µM (inactive) | > 100 µM (inactive) | > 100 µM (inactive) | > 100 µM (inactive) | > 100 µM (inactive) | > 100 µM (inactive) | –
2 | Fc1ccc(NC(=S)SCc2ccc3c(c2)OCO3)cc1F | 33 µM (inactive) | 20.7 µM (inactive) | 23.2 µM (inactive) | 18.7 µM (inactive) | 16.6 µM (inactive) | 18.3 µM (inactive) | 15.5 µM (inactive) | 21.2 µM (inactive) | 21.8 µM (inactive) | 18.9 µM (inactive) | 17.2 µM | 15.6 µM (inactive) | 11.1 µM (inactive) | 15.3 µM (inactive) | 25.5 µM (inactive) | 22.4 µM (inactive) | – | 20.6 µM (inactive) | 25.5 µM (inactive) | 22.7 µM (inactive)
3 | CSc1c(C#N)c(O)n(-c2ccc(C)cc2)c(=O)c1C(C)=O | > 100 µM (inactive) | > 100 µM (inactive) | – | > 100 µM (inactive) | > 100 µM (inactive) | > 100 µM (inactive) | > 100 µM (inactive) | > 100 µM (inactive) | > 100 µM (inactive) | > 100 µM (inactive) | > 100 µM | > 100 µM (inactive) | 42.8 µM (inactive) | > 100 µM (inactive) | > 100 µM (inactive) | > 100 µM (inactive) | > 100 µM (inactive) | > 100 µM (inactive) | > 100 µM (inactive) | > 100 µM (inactive)
4 | C/C(CC/C(C)=N/O)=N\O | > 100 µM (inactive) | > 100 µM (inactive) | – | > 100 µM (inactive) | > 100 µM (inactive) | > 100 µM (inactive) | > 100 µM (inactive) | > 100 µM (inactive) | > 100 µM (inactive) | > 100 µM (inactive) | > 100 µM | > 100 µM (inactive) | > 100 µM (inactive) | > 100 µM (inactive) | > 100 µM (inactive) | > 100 µM (inactive) | > 100 µM (inactive) | > 100 µM (inactive) | > 100 µM (inactive) | > 100 µM (inactive)
5 | COc1cc2c(cc1O)c(O)cc1c3cc(OC)c(OC)cc3c[n+](C)c21 | 28.2 µM (inactive) | 4.69 µM (inactive) | – | 8.73 µM (inactive) | 1.13 µM (inactive) | > 100 µM (inactive) | > 67.5 µM (inactive) | < 0.01 µM (active) | > 91 µM (inactive) | > 43.3 µM (inactive) | > 100 µM | 44 µM (inactive) | > 100 µM (inactive) | 16.2 µM (inactive) | > 100 µM (inactive) | > 80.5 µM (inactive) | > 32.8 µM (inactive) | 35.2 µM (inactive) | > 78.2 µM (inactive) | 3.65 µM (inactive)
6 | CN1CCN(c2cc3[nH]c(-c4ccc(Cl)cc4)nc3cc2F)CC1 | 21.8 µM (inactive) | 15.8 µM (inactive) | 25.4 µM (inactive) | 7.82 µM (inactive) | 21.3 µM (inactive) | 16.8 µM (inactive) | 13.8 µM (inactive) | 16.2 µM (inactive) | 4.71 µM (inactive) | 18.2 µM (inactive) | 5.42 µM | 17.6 µM (inactive) | 15.2 µM (inactive) | 10.5 µM (inactive) | 10.8 µM (inactive) | 22.8 µM (inactive) | 14.1 µM (inactive) | 14.7 µM (inactive) | 16.8 µM (inactive) | –
7 | Cc1ccc2nc3c(=O)[nH]c(=O)nc-3n(C)c2c1C | > 100 µM (inactive) | > 100 µM (inactive) | – | > 100 µM (inactive) | > 100 µM (inactive) | > 100 µM (inactive) | > 100 µM (inactive) | > 100 µM (inactive) | > 100 µM (inactive) | > 100 µM (inactive) | > 100 µM | > 100 µM (inactive) | > 100 µM (inactive) | > 100 µM (inactive) | > 100 µM (inactive) | > 100 µM (inactive) | > 100 µM (inactive) | > 100 µM (inactive) | > 100 µM (inactive) | > 100 µM (inactive)
8 | COc1ccc(OC)c2c(Nc3ccc(S(=O)(=O)O)c4cc(S(=O)(=O)O)cc(S(=O)(=O)O)c34)cc(C)nc12 | > 100 µM (inactive) | > 100 µM (inactive) | – | > 100 µM (inactive) | – | > 100 µM (inactive) | > 100 µM (inactive) | > 100 µM (inactive) | 10.8 µM (inactive) | > 100 µM (inactive) | > 100 µM | > 100 µM (inactive) | > 100 µM (inactive) | > 100 µM (inactive) | > 100 µM (inactive) | > 100 µM (inactive) | > 100 µM (inactive) | > 100 µM (inactive) | > 100 µM (inactive) | > 100 µM (inactive)
9 | CN(C)CCCNc1c2ccccc2[n+]([O-])c2ccccc12 | 39.9 µM (inactive) | 45.7 µM (inactive) | 36.5 µM (inactive) | 31.6 µM (inactive) | – | > 100 µM (inactive) | 47.8 µM (inactive) | 74.6 µM (inactive) | – | 13.3 µM (inactive) | 41.4 µM | 44.6 µM (inactive) | 38.8 µM (inactive) | 31.2 µM (inactive) | 39.3 µM (inactive) | 27.1 µM (inactive) | 46.7 µM (inactive) | 51.4 µM (inactive) | 46.5 µM (inactive) | 45.9 µM (inactive)
10 | O=C(NC1=C(Cl)C(=O)c2ccccc2C1=O)c1ccccc1 | 17.3 µM (inactive) | 23.8 µM (inactive) | 24.9 µM (inactive) | 19.2 µM (inactive) | 54.2 µM (inactive) | – | 18.9 µM (inactive) | 64.1 µM (inactive) | 46.5 µM (inactive) | 15.5 µM (inactive) | 25.2 µM | 52.5 µM (inactive) | 47.1 µM (inactive) | – | 32.1 µM (inactive) | 45.1 µM (inactive) | 44.4 µM (inactive) | 65 µM (inactive) | 24.9 µM (inactive) | 50.6 µM (inactive)
11 | CCOC(=O)C(CC(=O)OC)NC(=O)C(CC(=O)OC)NC(=O)C(CC(=O)OC)NC(=O)C(CC(=O)OC)NC(=O)OCc1ccccc1 (stereo not drawn) (Cbz-D(OMe)D(OMe)D(OMe)D(OMe)-OEt; configuration not given here) | > 100 µM (inactive) | > 100 µM (inactive) | > 100 µM (inactive) | > 100 µM (inactive) | > 100 µM (inactive) | > 100 µM (inactive) | > 100 µM (inactive) | – | > 100 µM (inactive) | > 100 µM (inactive) | > 100 µM | > 100 µM (inactive) | > 100 µM (inactive) | – | > 100 µM (inactive) | – | > 100 µM (inactive) | > 100 µM (inactive) | > 100 µM (inactive) | –
